Laboratory results as given in ChEMBL document CHEMBL2176887, “Chemokine receptor antagonists” (J Med Chem, 2012).
One block for each compound: values may come before it.

Experiments:
[1] = biological target: T1, C-C chemokine receptor type 1 (Homo sapiens, UniProt P32246)
T1 sequence (P32246 whole entry): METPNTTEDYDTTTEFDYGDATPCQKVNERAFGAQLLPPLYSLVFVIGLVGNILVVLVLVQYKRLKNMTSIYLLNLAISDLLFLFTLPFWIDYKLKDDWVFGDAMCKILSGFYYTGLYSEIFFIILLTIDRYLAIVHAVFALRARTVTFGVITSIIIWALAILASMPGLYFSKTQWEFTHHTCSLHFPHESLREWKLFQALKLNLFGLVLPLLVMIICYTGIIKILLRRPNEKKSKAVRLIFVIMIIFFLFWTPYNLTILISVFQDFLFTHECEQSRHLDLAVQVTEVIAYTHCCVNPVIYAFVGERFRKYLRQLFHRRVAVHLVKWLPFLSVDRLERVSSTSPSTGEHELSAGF

physchem = settings: octanol/water
Description: Lipophilicity, log P of the compound

[2] = biological target: T1, C-C chemokine receptor type 1; experiment: Antagonist activity at CCR1; assay type: functional
[3] = Oral bioavailability in beagle dog; assay type: ADME, organism-based, Canis lupus familiaris; settings: in vivo
[4] = Half life in beagle dog; assay type: ADME, organism-based, Canis lupus familiaris; settings: in vivo
[5] = Half life in rat; assay type: ADME, organism-based; settings: in vivo
[6] = Oral bioavailability in rat; assay type: ADME, organism-based; settings: in vivo
[7] = biological target: T2, C-C chemokine receptor type 4 (Homo sapiens, UniProt P51679); experiment: Binding affinity to CCR4
T2 sequence (P51679 whole entry): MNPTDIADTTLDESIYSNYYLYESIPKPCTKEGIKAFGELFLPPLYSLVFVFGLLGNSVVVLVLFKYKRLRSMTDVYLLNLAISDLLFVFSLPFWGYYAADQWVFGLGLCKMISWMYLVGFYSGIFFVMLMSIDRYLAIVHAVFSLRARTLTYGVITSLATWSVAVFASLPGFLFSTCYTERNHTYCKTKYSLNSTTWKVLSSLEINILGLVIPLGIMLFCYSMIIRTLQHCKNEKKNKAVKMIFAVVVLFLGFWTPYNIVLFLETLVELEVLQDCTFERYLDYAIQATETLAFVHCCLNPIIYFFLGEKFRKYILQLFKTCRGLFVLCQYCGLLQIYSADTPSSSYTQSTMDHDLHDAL

[8] = biological target: T3, C-X-C chemokine receptor type 2 (Homo sapiens, UniProt P25025); experiment: Antagonist activity at CXCR2 assessed as inhibition of neutrophil CD11b up-regulation; assay type: functional
T3 sequence (P25025 whole entry): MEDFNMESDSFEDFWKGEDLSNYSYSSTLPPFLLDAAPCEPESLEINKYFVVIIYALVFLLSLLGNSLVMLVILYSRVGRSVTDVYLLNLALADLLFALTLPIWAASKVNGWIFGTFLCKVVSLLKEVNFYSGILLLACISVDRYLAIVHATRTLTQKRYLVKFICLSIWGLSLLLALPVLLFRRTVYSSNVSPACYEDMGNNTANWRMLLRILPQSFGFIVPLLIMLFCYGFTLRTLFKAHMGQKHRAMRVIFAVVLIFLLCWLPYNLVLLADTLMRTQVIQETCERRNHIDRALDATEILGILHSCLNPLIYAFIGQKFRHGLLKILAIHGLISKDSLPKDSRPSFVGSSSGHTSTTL

[9] = biological target: T3, C-X-C chemokine receptor type 2
Description: Binding affinity to CXCR2

[10] = biological target: T4, C-X-C chemokine receptor type 1 (Homo sapiens, UniProt P25024)
T4 sequence (P25024 whole entry): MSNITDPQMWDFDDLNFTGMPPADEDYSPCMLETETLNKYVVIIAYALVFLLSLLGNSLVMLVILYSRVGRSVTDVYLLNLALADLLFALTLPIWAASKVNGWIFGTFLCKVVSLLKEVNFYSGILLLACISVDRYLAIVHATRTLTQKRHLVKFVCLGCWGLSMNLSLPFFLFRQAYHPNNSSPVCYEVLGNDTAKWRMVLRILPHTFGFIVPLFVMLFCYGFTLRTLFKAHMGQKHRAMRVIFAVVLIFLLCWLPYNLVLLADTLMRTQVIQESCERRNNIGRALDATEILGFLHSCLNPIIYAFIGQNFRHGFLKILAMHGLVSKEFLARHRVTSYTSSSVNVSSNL
Description: Binding affinity to CXCR1

[11] = system: Human immunodeficiency virus 1; experiment: Antiviral activity against R5 tropic Human immunodeficiency virus 1; assay type: functional, organism-based
[12] = Oral bioavailability in monkey; assay type: ADME, organism-based, Macaca mulatta; settings: rhesus monkey, in vivo
[13] = biological target: C-C chemokine receptor type 2 (Homo sapiens, UniProt P41597)
Histamine H1 receptor [14] = biological target: T5, Histamine H1 receptor (Homo sapiens, UniProt P35367); experiment: Antagonist activity at histamine H1 receptor expressed in human PC3 cells inhibition of histamine-induced calcium influx by cell based assay; assay type: functional, PC-3
[15] = biological target: T6, C-C chemokine receptor type 3 (Homo sapiens, UniProt P51677); experiment: Antagonist activity at human CCR3 assessed as inhibition of CCL11-induced calcium influx by cell based assay; assay type: functional
T6 sequence (P51677 whole entry): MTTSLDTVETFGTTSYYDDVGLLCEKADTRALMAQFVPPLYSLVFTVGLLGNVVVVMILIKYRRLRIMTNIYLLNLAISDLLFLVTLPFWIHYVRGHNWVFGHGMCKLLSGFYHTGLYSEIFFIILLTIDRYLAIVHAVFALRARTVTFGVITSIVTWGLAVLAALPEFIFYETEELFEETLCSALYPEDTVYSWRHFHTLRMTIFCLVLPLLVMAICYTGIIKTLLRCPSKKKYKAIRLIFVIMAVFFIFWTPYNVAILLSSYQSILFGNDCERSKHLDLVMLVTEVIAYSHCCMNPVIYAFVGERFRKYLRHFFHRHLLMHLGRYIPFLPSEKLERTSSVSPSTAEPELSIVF

Histamine H1 receptor [16] = biological target: T5, Histamine H1 receptor; experiment: Binding affinity to histamine H1 receptor
Thromboxane A2 receptor = biological target: T7, Thromboxane A2 receptor (Homo sapiens, UniProt P21731)
T7 sequence (P21731 whole entry): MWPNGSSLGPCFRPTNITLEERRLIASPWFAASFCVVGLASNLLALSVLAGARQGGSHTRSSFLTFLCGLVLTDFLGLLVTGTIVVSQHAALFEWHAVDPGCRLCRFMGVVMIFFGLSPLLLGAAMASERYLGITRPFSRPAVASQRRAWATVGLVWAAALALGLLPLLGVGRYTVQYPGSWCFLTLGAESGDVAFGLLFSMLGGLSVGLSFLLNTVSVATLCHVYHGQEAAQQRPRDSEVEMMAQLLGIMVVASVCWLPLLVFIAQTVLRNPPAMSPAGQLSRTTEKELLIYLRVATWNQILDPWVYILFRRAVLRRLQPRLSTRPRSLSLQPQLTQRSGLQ
Description: Binding affinity to TXA2 receptor receptor

[17] = biological target: T8, Type-1 angiotensin II receptor (Homo sapiens, UniProt P30556)
T8 sequence (P30556 whole entry): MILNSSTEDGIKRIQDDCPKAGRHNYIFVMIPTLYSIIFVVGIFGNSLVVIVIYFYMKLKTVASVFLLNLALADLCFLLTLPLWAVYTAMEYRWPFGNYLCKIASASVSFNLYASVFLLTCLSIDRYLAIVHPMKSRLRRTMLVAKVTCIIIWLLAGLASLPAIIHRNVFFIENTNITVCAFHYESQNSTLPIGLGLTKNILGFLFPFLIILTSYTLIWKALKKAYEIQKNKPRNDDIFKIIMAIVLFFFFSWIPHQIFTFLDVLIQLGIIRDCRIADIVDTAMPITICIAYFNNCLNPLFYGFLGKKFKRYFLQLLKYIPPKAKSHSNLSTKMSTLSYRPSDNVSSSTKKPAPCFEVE
Description: Binding affinity to AT1 receptor

[18] = biological target: C-C chemokine receptor type 5 (Homo sapiens, UniProt P51681)
[19] = biological target: T9, Muscarinic acetylcholine receptor M2 (Homo sapiens, UniProt P08172)
T9 sequence (P08172 whole entry): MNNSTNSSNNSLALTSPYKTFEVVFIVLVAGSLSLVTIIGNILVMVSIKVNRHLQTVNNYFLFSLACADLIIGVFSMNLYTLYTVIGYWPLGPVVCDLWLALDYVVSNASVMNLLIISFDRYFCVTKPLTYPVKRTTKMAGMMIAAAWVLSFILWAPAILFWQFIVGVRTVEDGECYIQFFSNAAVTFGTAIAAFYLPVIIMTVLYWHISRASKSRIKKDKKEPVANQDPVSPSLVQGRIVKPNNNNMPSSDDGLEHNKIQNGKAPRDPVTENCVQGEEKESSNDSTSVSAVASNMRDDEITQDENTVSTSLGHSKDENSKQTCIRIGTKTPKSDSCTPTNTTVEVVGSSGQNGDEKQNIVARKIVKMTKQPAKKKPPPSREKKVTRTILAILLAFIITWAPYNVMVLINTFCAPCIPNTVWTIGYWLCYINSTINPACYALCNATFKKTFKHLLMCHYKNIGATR
Description: Binding affinity to muscarinic M2 receptor

T5 sequence (P35367 whole entry): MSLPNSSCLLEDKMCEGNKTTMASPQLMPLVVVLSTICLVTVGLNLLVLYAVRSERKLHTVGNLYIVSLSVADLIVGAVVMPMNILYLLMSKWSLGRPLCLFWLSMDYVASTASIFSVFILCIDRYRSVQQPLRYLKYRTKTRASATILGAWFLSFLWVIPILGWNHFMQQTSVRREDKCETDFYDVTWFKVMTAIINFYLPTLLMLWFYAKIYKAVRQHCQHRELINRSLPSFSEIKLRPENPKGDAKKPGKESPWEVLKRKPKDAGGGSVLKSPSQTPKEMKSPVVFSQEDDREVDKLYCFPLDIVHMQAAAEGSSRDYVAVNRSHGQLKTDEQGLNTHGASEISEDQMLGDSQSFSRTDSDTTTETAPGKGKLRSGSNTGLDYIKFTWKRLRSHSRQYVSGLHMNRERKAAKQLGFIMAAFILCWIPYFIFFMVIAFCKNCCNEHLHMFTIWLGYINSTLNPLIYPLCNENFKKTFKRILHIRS
Chain of C-C chemokine receptor type 5 (P51681 whole entry): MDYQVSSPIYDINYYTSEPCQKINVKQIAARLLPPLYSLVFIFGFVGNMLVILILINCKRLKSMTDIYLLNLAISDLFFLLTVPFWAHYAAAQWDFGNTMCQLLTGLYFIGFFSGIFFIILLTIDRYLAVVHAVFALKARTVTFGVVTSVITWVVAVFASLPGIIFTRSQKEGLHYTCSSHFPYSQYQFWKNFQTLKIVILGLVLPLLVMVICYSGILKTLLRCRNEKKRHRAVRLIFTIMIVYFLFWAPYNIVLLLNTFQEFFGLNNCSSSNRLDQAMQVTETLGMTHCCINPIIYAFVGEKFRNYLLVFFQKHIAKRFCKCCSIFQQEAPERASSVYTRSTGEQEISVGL
Chain of C-C chemokine receptor type 2 (P41597 whole entry): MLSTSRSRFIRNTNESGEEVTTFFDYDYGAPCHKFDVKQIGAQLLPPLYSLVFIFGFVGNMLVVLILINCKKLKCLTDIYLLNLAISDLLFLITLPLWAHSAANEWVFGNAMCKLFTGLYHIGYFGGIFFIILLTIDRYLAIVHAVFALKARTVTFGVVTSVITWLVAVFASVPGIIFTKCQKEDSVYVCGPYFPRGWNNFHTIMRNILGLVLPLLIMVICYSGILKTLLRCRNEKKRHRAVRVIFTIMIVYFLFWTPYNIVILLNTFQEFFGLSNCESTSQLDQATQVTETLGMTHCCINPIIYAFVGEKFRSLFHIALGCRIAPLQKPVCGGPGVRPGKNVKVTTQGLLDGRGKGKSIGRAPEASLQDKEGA

Compound: NCC1CCCN(C(=O)c2ccc3c(c2)C(C(=O)NC2CCN(C/C4=C/CCCCCCC4)CC2)c2ccccc2O3)C1 (configuration not stated)
- Ki [1]: 1.8 nM

Compound: CC(C)(C)c1ccc(S(=O)(=O)Nc2ccc(Cl)cc2C(=O)c2cc[n+]([O-])cc2)cc1 [VERCIRNON]
- logP (physchem): 4.7

Compound: CC[C@@H](Nc1c(Nc2cccc(C(=O)N(C)C)c2O)c(=O)c1=O)c1ccc(C)o1 [NAVARIXIN ANHYDROUS]
- logP (physchem): 1

Compound: O=C(Nc1ccc(Cl)c(S(=O)(=O)N2CCNCC2)c1O)Nc1cccc(F)c1Cl [ELUBRIXIN]
- IC50 [8]: 261 nM
- IC50 [9]: 5.1 nM
- IC50 [10]: > 10000 nM
- logP (physchem): 4.2

Compound: CCCCN1C(=O)[C@@H]([C@H](O)C2CCCCC2)NC(=O)C12CCN(Cc1ccc(Oc3ccc(C(=O)O)cc3)cc1)CC2 [APLAVIROC]
- IC50 [11]: 0.1 nM
- bioavailability [12]: 30%
- logP (physchem): 3.8

Compound: Cc1cnc(C(=O)c2ncnc3[nH]ccc23)c(NS(=O)(=O)c2ccc(Cl)c(C(F)(F)F)c2)c1 [ILACIRNON]
- IC50 [13]: 5 nM

Compound: Cc1ccc(C(=O)N2CCC(=CC(=O)N[C@@H]3CCN(Cc4ccc5cc(F)ccc5c4)C3)CC2)nn1
- Ki (Histamine H1 receptor [14]): 47 nM
- Ki [15]: 1.8 nM

Compound: CN(C)C/C=C1\c2ccccc2COc2ccc(CC(=O)O)cc21
- Ki (Thromboxane A2 receptor): > 1000 nM

Compound: CC(C)(O)CC[C@H](C[C@H](O)[C@H](Cc1cccc(F)c1)NC(=O)c1cnc2ccccc2n1)C(N)=O
- Ki [18]: 66 nM
- Ki [19]: 1320 nM

Now from value to compound:

- IC50 [2]: 5 nM
Compound: CO[C@@H]1COCC[C@@H]1NC1CC[C@@](C(=O)N2CCc3ncc(C(F)(F)F)cc3C2)(C(C)C)C1 (some centres not stated)

- bioavailability [3]: 97%
- half-life [4]: 2.6 h
- half-life [5]: 2.5 h
- bioavailability [6]: 85%
- Ki [7]: 10 nM
Compound: COc1cccc2c1c(NS(=O)(=O)c1ccc(Cl)s1)nn2Cc1cccc(NC(=O)CO)c1 [GSK-2239633]

- Ki (Histamine H1 receptor [16]): 20 nM
- Ki (Thromboxane A2 receptor): 740 nM
Compound: O=C(O)Cc1ccc2c(c1)/C(=C/CN1CCCC(Cc3ccccc3)C1)c1ccccc1CO2 (configuration not stated)

- Ki [17]: > 10000 nM
Compound: Cc1noc(NS(=O)(=O)c2ccccc2-c2ccc(-c3ncco3)cc2)c1C

- Ki [1]: 5 nM
- logP (physchem): 2.4
Compound: Cc1nnc(C(=O)NC(C)(C)c2nc(C(=O)NCc3ccc(F)cc3)c(O)c(=O)n2C)o1
